Measurements as given in patent US11559528B2, “BACE1 inhibition for the treatment of cancer” (The Cleveland Clinic Foundation, priority 2019, dated 2023).

Legend:
H1002 lung cancer cells = assay: Subcutaneous lung cancer xenografts (H1002); assay type: in vivo, mouse; conditions: 50 mg/kg once daily oral gavage, from two weeks after inoculation; p<0.01
Experimental: (§1) (A) Effects of BACE1 inhibitors on lung cancer cell proliferation. H1002 and H146 lung cancer cells were treated with the indicated concentrations of the BACE1 inhibitor AZD3293, MK-8931, AZD3839, or PF-06751979 (PF) for 72 hours. Cell viability was assessed by cell titer assay (n=3). (B-D) A preclinical trial of MK-8931 for lung cancer treatment in xenograft models. H1002 lung cancer cells (5×106) were transplanted into mouse right flank through subcutaneous injection to establish subcutaneous lung cancer xenografts. […] Tumors dissected from mice of each group were photographed (C) and weighed (D). […] Data are shown as mean SEM. p **<0.01, Student's t-test.

[1] = system: H1002 and H146 lung cancer cells; assay: Cell titer viability assay on lung cancer cells; assay type: cell-based, human; conditions: indicated concentrations, 72 hours, n=3
Experimental: as §1

[2] = system: bone marrow-derived macrophages (BMDMs); assay: Phagocytosis assay, bone marrow-derived macrophages against glioma cells; assay type: cell-based, mouse; conditions: MK-8931 50 μg/mL two days; T4121; p<0.001
[3] = system: GSCs (T387, T4121, and U87); assay: Cell viability (cell titer) assay on glioma stem cells; assay type: cell-based, human; conditions: MK-8931 10 and 50 μg/mL, three days
Experimental: (§2) FIG. 16, panels A-E. MK-8931 Treatment Had Little Effect on Glioma Stem Cells. (A and B) Tumorsphere formation assay to examine the effect of MK-8931 treatment on glioma stem cells (GSCs). Representative images (A) of tumorsphere derived from T4121 GSCs treated with MK-8931 (50 μg/mL) or the vehicle control. Quantifications (B) show the number and size of tumorsphere derived from T4121 GSCs treated with MK-8931 (50 μg/mL) or the control. Data are shown as mean±SEM. NS (not significant)≥0.05, Student's t-test. […] GAPDH was blotted as loading control. (D) Immunoblot analysis of the apoptotic markers cleaved-PARP and cleaved caspase-3 in GSCs (T387 and T4121) treated with MK-8931 (50 μg/mL), etoposide (Etop, 1 μM), or the vehicle control for different time as indicated. GAPDH was blotted as loading control. […] Ctl: Control; Etop: Etoposide. (E) Cell viability assay to examine the effect of MK-8931 treatment on proliferation of glioma stem cells. […] Data are shown as mean±SEM. NS (not significant)≥0.05, Student's t-test.
Cell viability assay was performed by using a Cell Titer-Glo Luminescent Cell Viability Assay Kit according to the manufacturer's instruction (Promega, G7571). For this assay, 1,000 cells were seeded on one well of a 96-well plate in 100 μL of stem cell medium. […] Plate was loaded on the VICTOR Multilabel Plate Reader (PerkinElmer) and the readout were recorded and analyzed. […]

[4] = system: intracranial xenografts of lung ADC (H1002); assay: Intracranial xenografts of lung adenocarcinoma (H1002) brain metastases; assay type: in vivo, mouse; conditions: 30 mg/kg once daily oral
Experimental: The lung cancer cells (H1002, ADC) expressing luciferase were transplanted into mouse brains to establish intracranial xenografts of lung ADC. […] Data are shown as mean±SEM. * p<0.05, *** p<0.001, and NS (not significant)≥0.05; Student's t-test.
The lung ADC cancer cells (H1002) expressing luciferase were transplanted into mouse brains to establish intracranial xenografts of lung ADC. […] IVIS was performed twice per week to monitor tumor growth. When humane endpoints occur, mouse was anesthetized and brains with xenografts were harvested for further analyses. […] Frozen xenograft sections were immunostained with a specific antibody against cleaved caspase-3 (in green) and counterstained with DAPI (in blue). […] Frozen xenograft sections were immunostained with a specific antibody against cleaved GLUT1 (in green) and counterstained with DAPI (in blue). […] Frozen xenograft sections were immunostained with a specific antibody against Ki-67 (in green) and counterstained with DAPI (in blue). […] Data are shown as mean±SEM of at least 6 images from 3-5 mice. * p<0.05 and ** p<0.01; Student's t-test.
In brief, GSCs (T4121 and T387) or lung ADC cells (H1002) expressing luciferase were injected into the right cerebral cortex at a depth of 3.5 mm. Seven days after the implantation, IVIS was performed twice per week to monitor the tumor growth under the Spectrum CT Imaging System (PerkinElmer) before and after treatment. […] Mouse brains bearing the tumors were collected for immunofluorescent, histochemical and histological analyses.
Primary antibodies were added to the sections or cells and incubated overnight at 4° C. […] After the incubation of the primary antibodies, the sections or cells were washed three times with cold PBS for five minutes each and then incubated with the secondary antibodies for one hour at room temperature. […] Finally, images were captured by a fluorescence microscopy (Leica DM4000) and further analyzed with ImageJ software.

[5] = system: iPSC-derived M2 macrophages; assay: Fluorescent phagocytosis assay, iPSC-derived M2 macrophages against lung ADC cells (H1002); assay type: cell-based, human; set-up: dose or concentration left out as unconfirmed; conditions: MK-8931 two days, p<0.01
Source text: FIG. 10, panels A-C. MK-8931 Treatment Promotes Phagocytosis of iPSC-derived M2 Macrophages against Human Lung ADC Cancer Cells. (A) Immunofluorescent analysis of macrophage marker expression in iPSC-derived M2 macrophages. The iPSC-derived M2 macrophages (GFP+) and the matched iPSCs (GFP+, control) were stained with specific antibodies against IBA1 (total macrophage marker, in red) and FIZZ1 (M2 macrophage marker, in red) and then counterstained with DAPI (in blue). […] (B and C) In vitro macrophage phagocytosis assay showing that the BACE1 inhibitor MK-8931 promoted phagocytosis of the iPSC-derived macrophages against human lung ADC cancer cells. […] Scale bars represent 3 μM. […]
In this assay, we detected macrophage phagocytosis as fluorescent inclusion bodies of the cancer cells (tdTomato^+) within macrophages (GFP^+). […] Thus, potential small molecules that can activate macrophages (GFP*) to phagocytize glioma cells (tdTomato*) could be detected under a fluorescent microscope during the screening (FIG. 1C).
To screen for potential small molecules activating phagocytosis of iPSC-derived M2 macrophages against human cancer cells, GFP^+ iPSC-derived M2 macrophages (5×10^4 cells) were seeded in each well of 24-well plates and treated by small molecules for two days. […] The phagocytosis was measured as the number of inclusion bodies of cancer cells (in red) within macrophages (in green).

[6] = system: iPSC-derived M2 macrophages; assay: Fluorescent phagocytosis screening assay, iPSC-derived M2 macrophages against glioma cells; assay type: cell-based, human
T4121 GSCs = assay: Tumorsphere formation assay; assay type: cell-based, human; conditions: MK-8931 50 μg/mL
Experimental: as §2
Tumorsphere formation assay was performed as described in our previous study (Shi et al., 2018). Glioma cells (1000 cells) were plated on the one well of a 96-well plate and maintained in the stem cell medium. […] The sizes and numbers of the tumor-sphere in the control and MK-8931 groups were furthered analyzed with ImageJ.

For `CN1C(N)=N[C@](C)(c2cc(NC(=O)c3ccc(F)cn3)ccc2F)CS1(=O)=O` [MK-8931], the “tumor growth (tumor weight)” value (H1002 lung cancer cells) was “markedly inhibited lung tumor growth”, the “lung cancer cell proliferation (cell viability)” value [1] was “suppressed lung cancer cell proliferation” and the “phagocytosis of BMDMs against human glioma cells” value [2] was “significantly promoted phagocytosis of BMDMs”. The “proliferation / cell viability of glioma stem cells (cell titer)” value [3] was “did not affect”, the “tumor growth (mean bioluminescence)” value ([4]; Days 7, 14 and 21) was “significantly inhibited tumor growth of lung ADC brain metastases” and the “M1 TAMs (HLA-DR+/IBA1+ cells)” value ([4]; p<0.001) was “significantly increased M1 TAMs”. For the same compound, the “M2 TAMs (CD163+/IBA1+ cells)” value ([4]; p<0.001) was “significantly reduced M2 TAMs”, the “survival (Kaplan-Meier)” value ([4]; p<0.001 by log-rank) was “significantly extended the survival of animals bearing the intracranial lung ADC xenografts” and the “cell proliferation (fraction of Ki-67+ cells)” value ([4]; p<0.01) was “significantly reduced cell proliferation”. For the same compound, the “apoptosis (fraction of cleaved caspase-3+ cells)” value ([4]; p<0.05) was “significantly augmented apoptosis”, the “in vivo TAM phagocytosis (inclusion bodies)” value ([4]; p<0.05) was “significantly increased TAM phagocytosis against human lung ADC cells” and the “vessel density (GLUT1+ cells)” value ([4]; p<0.05) was “significantly reduced vessel density”. For the same compound, the “phagocytosis of iPSC-derived macrophages against human lung ADC cancer cells” value [5] was “potently induced phagocytosis of iPSC-derived macrophages”, the “macrophage phagocytosis against cancer cells” value [6] was “promotes macrophage phagocytosis against cancer cells” and the “phagocytosis of iPSC-derived macrophages against human glioma cells (inclusion bodies)” value ([6]; MK-8931 50 μg/mL two days, T4121 tdTomato cells co-incubated two hours, p<0.001 vs vehicle) was “potently induced phagocytosis of iPSC-derived macrophages”. The “screen of drug libraries and known inhibitors for promoters of macrophage phagocytosis: hit” value ([6]; glioma cells and lung ADC cells) was “hits” and the “number and size of tumorspheres” value (T4121 GSCs) was “did not affect GSC sphere formation”.
